# Test system: 1K1C rats
# Experiment: Kidney ischemia-reperfusion injury, one-kidney one-clip (1K1C) model, fractional excretion of sodium
# Assay type: in vivo
# Conditions: mean ± SEM
# Description: Rats were individually housed in a modified cage that was equipped with a raised mesh bottom to separate the fecal product from urine. Before the test, all animals were withheld from food and water overnight. In the morning of the test, normal saline (i.e., 0.9% sodium chloride) was given via oral gavage at […] (Lipschitz, W. L. Hadidian, Z. & Kerpcar, A.: Bioassay of diuretics., J. Pharmacol. Exp. Ther., 79: 97-110, 1943). Samples of blood and urine were collected (standard procedures) at time points (1 and/or 5 hrs after fluid intake) from animals, centrifuged, and kept at 4 degrees until analysis for factors that reflect renal functions. Sodium and creatinine levels were determined by Quality Clinical Labs, Inc. (Mountain View, Calif.). Sodium concentrations were determined by ion selective electrode (standard procedures). Creatinine levels were determined by the alkaline picrated (Jaffe) reaction as described (Liobat-Estelles, M., Sevillano-Cabeja, A. & Campines-Falco, P.: Kinetic chemometric studies of the determination of creatinine using the Jaffe reaction. Part I: kinetics of the reaction; analytical conclusion. Analyst, 11: 597-602, 1989). Fractional excretion of sodium (FENa+), a parameter for ion-handling by the kidney, was calculated, using the following equation: =UNa×Pcr/PNa×Ucr, where UNa is the concentration of sodium in urine; Pcr is the plasma concentration of creatinine; PNa is the […]; and Ucr is the concentration of creatinine in the urine.
# After the data for the calculation of basal levels of FENa+ was obtained (Table 16), rats were anesthetized with pentobarbital (65 mg/kg, i.p.). The abdominal region was shaved with a safety razor and sterilized with povidone iodine solution. A midline incision was made and the right kidney was exposed. The right renal pedicle and right urether were both ligated twice with 4-0 sutures and cut between the ligations. The right kidney was then removed. 7 days later, these rats, after another overnight food-water deprivation, were randomly assigned into 3 groups and orally given either Compound 62 (50 mg/kg, at the volume of 1 ml/kg,p.o.) or its vehicle (i.e., 96% of 0.5% CMC and 4 of 20% Tween 80, at the volume of 1 ml/kg, p.o.) 1 hr before kidney ischemia was produced. Positive controls were performed using quercetin (30 mg/kg, i.p.) given 2 hrs before ischemia (Kahraman, A., Erkasap, N., Serteser, M. & Koken, T.: Protective effect of quercetin on renal ischemia/reperfusion injury in rats. J. Nephrol., 16: 219-224, 2003). Animals were then anesthetized and had their left kidneys exposed after opening of their abdominal cavities. A non-traumatic vascular clamp was applied to the left renal pedicle (the ischemia phase), which was released 45 min later (the reperfusion phase). Lipschitz test was then conducted to measure ion-handling capabilities. Normal saline was orally administered at […] as soon as the vascular clamp was released. 60- and 300-min after reperfusion, plasma and urine samples were obtained.
# [1] = 1K1C rats, Compound 62 50 mg/kg p.o. 1 hr before ischemia, quercetin 30 mg/kg i.p. 2 hrs before, 45 min ischemia
smiles,measurement,setting,value
"O=c1c(O)c(-c2ccc(O)c(O)c2)oc2cc(O)cc(O)c12 [Quercetin, quercetin, reference compound]",1-hr post-ischemic FENa+ (%),[1],0.54 ± 0.02 %
same,5-hr post-ischemic FENa+ (%),[1],5.23 ± 4.43%
same,FENa+ (%) pre-surgery (basal) levels,"rats before 1K1C modeling, group baseline",1.60 ± 0.15%

# Reference: patent US20100168112A1, “2-Substituted and 4-substituted aryl nitrone compounds” (RENOVIS, INC., priority 2004, published 2010)
